Measured values: patent US10301284B2, “Therapeutic inhibitory compounds” (LifeSci Pharmaceuticals, Inc., priority 2016, dated 2019)
Where two headings read alike, the source gives them in different places.

What was measured:
human Plasma Kallikrein [1] = molecular target: T1, human Plasma Kallikrein (Homo sapiens (Human), UniProt P03952); assay: Human whole blood kallikrein inhibition (ellagic acid-activated human plasma, Z-FR-2-AMC substrate); assay type: biochemical
Protocol: The ability of the compounds disclosed herein to inhibit human plasma kallikrein activity was quantified according to the procedures below.
All dilutions were prepared in an assay buffer comprising 50 mM Tris-HCl pH 7.2, 150 mM NaCl, and 0.01% Triton X-100.
Human plasma was thawed on ice and centrifuged for 15 min at 4° C. to remove platelets. A 1 mM stock solution of ellagic acid was diluted to 8 μM and mixed with human plasma, after removing platelets, at a ratio of 1:0.8. The mixture of human plasma and ellagic acid was further diluted 32-fold in the assay buffer, to yield the final mixture for use in the inhibition assay.
A 22.5 μL volume of the final mixture of human plasma and ellagic acid was added to a 96-well microwell plate and the plate was incubated for 15 min at 37° C.
The test compound solution was prepared to provide final concentrations of 20 μM, 5 μM, 1.25 μM, 312.5 nM, 78.125 nM, 19.531 nM, 4.883 nM, 1.221 nM, 0.305 nM, and 0.076 nM. Each test compound concentration was tested in duplicates.
In addition to the inhibitor control and test wells, the 96 well assay plate included positive control wells which contain the mixture of human plasma and ellagic acid without test compounds, and background wells which contain neither the mixture of human plasma and ellagic acid nor the test compounds. The total volume of liquid in positive control and background wells was brought up to 35 μL using the assay buffer.
The assay plate containing test compounds mixed with human plasma and ellagic acid and appropriate controls was incubated at 37° C. for 5 min. A 10 mM stock solution of substrate Z-FR-2-AMC was diluted to 133.2 μM in the assay buffer, and 15 μL of the diluted substrate was added to each well, to yield a final substrate concentration of 40 μM in each well. The reagents were mixed by shaking the plate gently for 30 sec.
The enzyme reaction was quantified by immediate kinetic reading of the assay plate using excitation/emission wavelengths of 330 nm/440 nm respectively. Fluorescence intensity was recorded for 60 min, using a time interval of 43 sec.
The inhibition activity of the test compounds were evaluated using the IC50 values, calculated according to the dose-response curve of the test compounds, fitted using the “log(inhibitor)−response(variable slope)” equation in GraphPadPrism software (GraphPad Software, Inc.).
The percentage inhibition (EC50) was calculated using the following equation:
[formula] where, Mean(BG) is the average value of the fluorescence intensity of the background wells and Mean(PC) is the average value of the fluorescence intensity of the positive control wells.

[2] = Pharmacokinetic evaluation, oral exposure in rats; assay type: in vivo; conditions: male Sprague-Dawley rats, single oral dose 10 mg/kg via oral gavage, plasma
Protocol: Pharmacokinetic studies of select compounds were performed to assess the pharmacokinetic properties. Male Sprague-Dawley rats were administered a single oral dose of the test compound at 10 mg/kg (dose concentration: 2 mg/mL, dose volume: 5 ml/kg) via oral gavage. Blood samples were collected via jugular vein at pre-dose, post-dose 5 min, 15 min, 30 min, 1 h, 2 h, 4 h, 6 h, 8 h, 10 h and 24 h, and centrifuged (8000 rpm for 6 minutes at 2-8° C.). The resulting plasma fractions were analyzed by LC/MS/MS to determine the concentration of the test compound.

human Plasma Kallikrein [3] = molecular target: T1, human Plasma Kallikrein; assay: In vitro enzyme inhibition of human plasma kallikrein (Pro-Phe-Arg-AMC cleavage); assay type: biochemical; conditions: human plasma kallikrein, PFR-AMC substrate, 37° C.; read-out: hPK IC50
Method in brief: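 Human plasma kallikrein preincubated 5 min at 37 °C with compound in 50 mM Tris-HCl pH 7.5, 150 mM NaCl, 0.01% Triton X-100. Reaction started with Pro-Phe-Arg-AMC, fluorescence read every 43 s for 1 h at 37 °C. IC50 from highest mean velocity over 20 reads (~15 min).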

[4] = human plasma activated with ellagic acid, Z-FR-2-AMC 40 μM, 37° C., read-out: HWB EC50

T1 sequence (P03952 391-638 limits assumed): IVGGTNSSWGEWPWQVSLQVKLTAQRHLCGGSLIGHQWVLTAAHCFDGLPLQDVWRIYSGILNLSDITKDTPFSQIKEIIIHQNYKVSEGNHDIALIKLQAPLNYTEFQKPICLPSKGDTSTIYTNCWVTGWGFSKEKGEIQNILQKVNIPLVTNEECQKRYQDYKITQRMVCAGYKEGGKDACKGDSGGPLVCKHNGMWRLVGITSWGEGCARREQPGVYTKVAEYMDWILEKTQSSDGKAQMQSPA
T1 sequence (P03952 20-390 partner limits assumed): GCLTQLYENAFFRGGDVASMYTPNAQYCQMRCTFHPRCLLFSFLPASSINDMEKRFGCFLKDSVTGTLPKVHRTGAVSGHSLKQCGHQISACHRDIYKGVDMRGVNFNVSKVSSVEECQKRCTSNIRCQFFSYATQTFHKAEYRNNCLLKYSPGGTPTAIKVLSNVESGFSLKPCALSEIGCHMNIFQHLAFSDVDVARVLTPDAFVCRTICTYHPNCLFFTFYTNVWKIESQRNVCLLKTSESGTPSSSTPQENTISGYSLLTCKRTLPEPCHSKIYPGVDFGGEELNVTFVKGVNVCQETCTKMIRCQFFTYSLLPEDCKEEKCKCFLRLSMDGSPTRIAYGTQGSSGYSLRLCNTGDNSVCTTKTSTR

Compound	EC50 (human Plasma Kallikrein [1]; [4]) [nM]	AUC ([2]; rat, read-out: AUC) [ng·h/mL]	IC50 (human Plasma Kallikrein [3]) [nM]	EC50 (human Plasma Kallikrein [1]) [nM]	AUC [2]
Cc1cc(N)nc(C)c1CNC(=O)c1nn(Cc2ccc3ncc(Cl)cc3c2)cc1C#N [Example 36, N-((6-amino-2,4-dimethylpyridin-3-yl)methyl)-1-((3-chloroquinolin-6-yl)methyl)-4-cyano-1H-pyrazole-3-carboxamide]	< 100	100 to 1000	< 100		
Cc1nc(N)ccc1CNC(=O)c1cn(Cc2ccc3ncc(C(F)(F)F)cc3c2)nc1C#N [Example 74, N-((6-amino-2-methylpyridin-3-yl)methyl)-3-cyano-1-((3-(trifluoromethyl)quinolin-6-yl)methyl)-1H-pyrazole-4-carboxamide]	< 100	1000 to 10000	< 100		
Cc1cc(N)nc(C)c1CNC(=O)c1nn(Cc2ccc3ncc(Cl)cc3c2)cc1C(F)(F)F [Example 22, N-((6-amino-2,4-dimethylpyridin-3-yl)methyl)-1-((3-chloroquinolin-6-yl)methyl)-4-(trifluoromethyl)-1H-pyrazole-3-carboxamide]	< 100	100 to 1000	< 100		
Cc1cc(N)nc(C)c1CNC(=O)c1cn(Cc2cc(F)c3ncc(Cl)cc3c2)nc1C#N [Example 52, N-((6-amino-2,4-dimethylpyridin-3-yl)methyl)-1-((3-chloro-8-fluoroquinolin-6-yl)methyl)-3-cyano-1H-pyrazole-4-carboxamide]	< 100	100 to 1000	< 100		
Cc1cc(N)nc(C)c1CNC(=O)c1cn(Cc2cc(C(C)(C)O)c3ncc(Cl)cc3c2)nc1C#N [Example 58, N-((6-amino-2,4-dimethylpyridin-3-yl)methyl)-1-((3-chloro-8-(2-hydroxypropan-2-yl)quinolin-6-yl)methyl)-3-cyano-1H-pyrazole-4-carboxamide]	< 100	< 100	< 100		
Cc1cc(N)nc(C)c1CNC(=O)c1cnn(Cc2ccc3ncc(Cl)cc3c2)n1 [Example 21, N-((6-amino-2,4-dimethylpyridin-3-yl)methyl)-2-((3-chloroquinolin-6-yl)methyl)-2H-1,2,3-triazole-4-carboxamide]	< 100	1000 to 10000	< 100		
Cc1cc(N)nc(C)c1CNC(=O)c1cn(Cc2ccc3ncc(Cl)cc3c2)nc1C [Example 38, N-((6-amino-2,4-dimethylpyridin-3-yl)methyl)-1-((3-chloroquinolin-6-yl)methyl)-3-methyl-1H-pyrazole-4-carboxamide]	< 100	1000 to 10000	< 100		
COc1nn(Cc2ccc3ncc(Cl)cc3c2)cc1C(=O)NCc1c(C)cc(N)nc1C [Example 39, N-((6-amino-2,4-dimethylpyridin-3-yl)methyl)-1-((3-chloroquinolin-6-yl)methyl)-3-methoxy-1H-pyrazole-4-carboxamide]	< 100	1000 to 10000	< 100		
Cc1cc(N)nc(C)c1CNC(=O)c1coc(Cc2ccc3ncc(Cl)cc3c2)n1 [Example 29, N-((6-amino-2,4-dimethylpyridin-3-yl)methyl)-2-((3-chloroquinolin-6-yl)methyl)oxazole-4-carboxamide]	< 100	1000 to 10000	< 100		
Cc1cc(N)nc(C)c1CNC(=O)c1cn(Cc2ccc3ncc(C(F)(F)F)cc3c2)nc1C#N [Example 73, N-((6-amino-2,4-dimethylpyridin-3-yl)methyl)-3-cyano-1-((3-(trifluoromethyl)quinolin-6-yl)methyl)-1H-pyrazole-4-carboxamide]	< 100	100 to 1000	< 100		
Cc1cnc2c(C(C)(C)O)cc(Cn3ncc(C(=O)NCc4c(C)cc(N)nc4C)c3C#N)cc2c1 [Example 67, N-((6-amino-2,4-dimethylpyridin-3-yl)methyl)-5-cyano-1-((8-(2-hydroxypropan-2-yl)-3-methylquinolin-6-yl)methyl)-1H-pyrazole-4-carboxamide]	< 100	< 100	1000 to 10000		
Cc1cnc2c(C(N)=O)cc(Cn3cc(C(=O)NCc4c(C)cc(N)nc4C)c(C#N)n3)cc2c1 [Example 78, 6-((4-(((6-amino-2,4-dimethylpyridin-3-yl)methyl)carbamoyl)-3-cyano-1H-pyrazol-1-yl)methyl)-3-methylquinoline-8-carboxamide]	< 100	< 100	< 100		
Cc1cc(N)nc(C)c1CNC(=O)c1cn(Cc2cc(C#N)c3ncc(Cl)cc3c2)nc1C#N [Example 69, N-((6-amino-2,4-dimethylpyridin-3-yl)methyl)-1-((3-chloro-8-cyanoquinolin-6-yl)methyl)-3-cyano-1H-pyrazole-4-carboxamide]	< 100	< 100	< 100		
Cc1cc(N)nc(C)c1CNC(=O)c1cn(Cc2ccc3ncc(Cl)cc3c2)c2ncccc12 [Example 12, N-((6-amino-2,4-dimethylpyridin-3-yl)methyl)-1-((3-chloroquinolin-6-yl)methyl)-1H-pyrrolo[2,3-b]pyridine-3-carboxamide]		100 to 1000	< 100	< 100	
Cc1cc(N)nc(C)c1CNC(=O)c1cn(Cc2ccc3ncc(C4CC4)cc3c2)nc1C#N [Example 65, N-((6-amino-2,4-dimethylpyridin-3-yl)methyl)-3-cyano-1-((3-cyclopropylquinolin-6-yl)methyl)-1H-pyrazole-4-carboxamide]	< 100	100 to 1000	< 100		
4-amino-N-((6-amino-2,4-dimethylpyridin-3-yl)methyl)-1-((3-chloroquinolin-6-yl)methyl)-1H-pyrazole-3-carboxamide [Example 25]	< 100		< 100		C (>1000 ng · h/mL to ≤10,000 ng · h/mL)
Cc1cc(N)nc(C)c1CNC(=O)c1cn(Cc2ccc3ncc(Cl)cc3c2)c2cnccc12 [Example 16, N-((6-amino-2,4-dimethylpyridin-3-yl)methyl)-1-((3-chloroquinolin-6-yl)methyl)-1H-pyrrolo[2,3-c]pyridine-3-carboxamide]		100 to 1000	< 100	< 100	
Cc1cc(N)nc(C)c1CNC(=O)c1cn(Cc2ccc3ncc(Cl)cc3c2)c2ncncc12 [Example 32, N-((6-amino-2,4-dimethylpyridin-3-yl)methyl)-7-((3-chloroquinolin-6-yl)methyl)-7H-pyrrolo[2,3-d]pyrimidine-5-carboxamide]		< 100	< 100	< 100	
CC(=O)Nc1cn(Cc2ccc3ncc(Cl)cc3c2)nc1C(=O)NCc1c(C)cc(N)nc1C [Example 19, 4-acetamido-N-((6-amino-2,4-dimethylpyridin-3-yl)methyl)-1-((3-chloroquinolin-6-yl)methyl)-1H-pyrazole-3-carboxamide]	< 100	100 to 1000	< 100		
N#Cc1nn(Cc2cc(F)c3ncc(Cl)cc3c2)cc1C(=O)NCc1ccc2c(N)nccc2c1 [Example 54, N-((1-aminoisoquinolin-6-yl)methyl)-1-((3-chloro-8-fluoroquinolin-6-yl)methyl)-3-cyano-1H-pyrazole-4-carboxamide]	< 100	< 100	< 100		
2-amino-N-((6-amino-2,4-dimethylpyridin-3-yl)methyl)-1-((3-chloroquinolin-6-yl)methyl)-1H-imidazole-4-carboxamide [Example 24]	< 100		< 100		B (>100 ng · h/mL to ≤1000 ng · h/mL)
